Data: patent publication US20170274174A1, “SYSTEM AND METHOD FOR ADMINISTERING, MONITORING AND CONTROLLING BIOMIMETIC SLEEP” (THE GENERAL HOSPITAL CORPORATION, priority 2014, published 2017)
Read-outs that look alike come from different tables or passages of the source.

Cc1cccc([C@H](C)c2cnc[nH]2)c1C [dexmedetomidine]
EEG spectral dynamics / sleep state induced (high-dose: about 0.9 to about 1.1 mcg/kg loading, about 0.80 to about 0.9 mcg/kg/hr maintenance, FIGS. 4A-4B): only slow-waves being induced
EEG spectral dynamics / sleep state induced (low-dose: about 0.9 to about 1.1 mcg/kg loading, about 0.60 to about 0.7 mcg/kg/hr maintenance, FIGS. 3A-3B): spindles and slow-waves that can closely resemble stage N2 NREM sleep
